Among the test systems are A498 renal; HL-60(TB) leukemia; LOX IMVI melanoma; MCF7 breast; PC-3 prostate; SF-295 CNS; SK-MEL-28 melanoma; SNB-75 CNS; U251 CNS; UACC-257 melanoma.
Assay in all cases: NCI anticancer screen, dose series, 48 h

In PubChem BioAssay (NCI) one finds TGI and GI50 data, which are given here for 6 molecules.

Several values for one entry are separate records, joined by “and”; a condition that tells them apart may be missing. Equal entries are not always repeated.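 48-hour exposure; five concentrations; linearly interpolated endpoints. Abbreviation: GI50, concentration required for 50% inhibition of growth. TGI is the concentration that stops growth completely.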 Bounds are passed on as bounds.

For `C=C(Br)CNCC(=C)Br`, the TGI with A498 renal, in the test with HL-60(TB) leukemia, with LOX IMVI melanoma, in the test on MCF7 breast, with PC-3 prostate and in the test with SF-295 CNS was over 100 µM each time. For the same molecule, the TGI was over 100 µM with SK-MEL-28 melanoma, over 100 µM with SNB-75 CNS, over 100 µM in the test with U251 CNS and 98.6 µM in the test with UACC-257 melanoma.

As for `CC(NNC(=O)c1ccncc1)c1ccc(Cl)c(Cl)c1` (stereo unspecified), the TGI in the test on A498 renal, in the test on HL-60(TB) leukemia, with LOX IMVI melanoma, in the test with MCF7 breast, in the test with PC-3 prostate and in the test with SF-295 CNS was over 100 µM in each case. Besides, the TGI with SK-MEL-28 melanoma, in the test with SNB-75 CNS, in the test on U251 CNS and in the test with UACC-257 melanoma was over 100 µM in each case.

Take `CCOC(=O)C(NC(=O)CC)(Nc1ccc(S(=O)(=O)Nc2nc(C)cc(C)n2)cc1)C(F)(F)F` (stereo unspecified): the TGI with A498 renal, in the test with HL-60(TB) leukemia, in the test on LOX IMVI melanoma, in the test on MCF7 breast, in the test on PC-3 prostate and in the test with SF-295 CNS was over 100 µM in each case. The TGI in the test on SK-MEL-28 melanoma, with SNB-75 CNS, with U251 CNS and with UACC-257 melanoma was over 100 µM each time.

Take `Oc1nc(N/N=C/c2ccccc2)[nH]c1/C=C1\C=Nc2ccccc21`: the TGI in the test with A498 renal, with HL-60(TB) leukemia, in the test with LOX IMVI melanoma, in the test with MCF7 breast, with PC-3 prostate and in the test on SF-295 CNS was over 100 µM throughout. In addition, the TGI was over 100 µM in the test on SK-MEL-28 melanoma, over 100 µM with SNB-75 CNS, 51.3 µM in the test with U251 CNS and over 100 µM in the test on UACC-257 melanoma.

Consider `Cc1ccc(N=C2SC(c3ccc(C)cc3)(c3ccc(C)cc3)c3ccccc32)cc1`, for which the TGI in the test on A498 renal, in the test on HL-60(TB) leukemia, in the test with LOX IMVI melanoma, in the test on MCF7 breast, in the test with PC-3 prostate and with SF-295 CNS was over 100 µM in each case. Further, the TGI with SK-MEL-28 melanoma, in the test on SNB-75 CNS, in the test on U251 CNS and in the test with UACC-257 melanoma was over 100 µM each time.

On to `Cc1ccc(OCC2OC(n3cnc4c(Cl)ncnc43)CC2Oc2ccc(C)cc2)cc1` (stereo unspecified), for which the GI50 in the test with A498 renal was 20.4 µM and > 44.5 µM; with HL-60(TB) leukemia, 2.79 µM; with LOX IMVI melanoma it was 2.41 µM and 15 µM; in the test on MCF7 breast, 4.44 µM and 21 µM; with PC-3 prostate, 3.53 µM and 17.6 µM; with UACC-257 melanoma it was 6.24 µM and 16 µM. The TGI in the test with A498 renal was over 70.8 µM; in the test on HL-60(TB) leukemia, 7.17 µM; in the test on LOX IMVI melanoma, 10.8 µM and > 45.9 µM; with MCF7 breast, 12.6 µM and > 58.8 µM; with PC-3 prostate, 9.35 µM and 34.3 µM; in the test with SF-295 CNS, 30.2 µM and 38.1 µM. Besides, the TGI was 14.9 µM in the test with SK-MEL-28 melanoma; 34.3 µM and > 68.7 µM in the test on SNB-75 CNS; 11 µM and > 50.4 µM with U251 CNS; 18.5 µM and 37.1 µM with UACC-257 melanoma.
